Where two headings read alike, the source gives them in different places. Where a SMILES comes first, the peptide text is derived from it. Where no end group is shown, it is not given here. [ ]: non-standard residue; d: D form. pY = N[C@@H](Cc1ccc(OP(=O)(O)O)cc1)C(=O)O

Series [1] deals with Caco-2 cell monolayers. The following applies: cited from earlier work. On the procedure:
Basolateral solutions were sampled every 15 min for 60 min and analyzed by LC–TOF/MS. […] Therefo ...

The subject of a further series is CBLB. Also on record: method as in 2 sources, ref 9 = [9]; PMID 26874193; doi:10.1016/j.abb.2016.02.014; 9. Ohno A Structural analysis of the TKB domain of ubiquitin ligase Cbl-b complexed with its small inhibitory peptide, Cblin Arch. Biochem. Biophys. 2016 594 1 7 10.1016/j.abb.2016.02.014 26874193 ||| ref 19 = [19]; PMID 23762056; doi:10.1155/2013/907565; 19. Abe T Soy glycinin contains a functional inhibitory sequence against muscle-atrophy-associated ubiquitin ligase Cbl-b Int. J. Endocrinol. 2013 2013 907565 907565 23762056 10.1155/2013/907565 PMC36. The following applies: cited from earlier work. The source says: The amino acid sequence of Cblin pentapeptide was designed to inhibit interaction between CBLB and IRS1 proteins based on the ability of CBLB to recognize and bind to phosphorylated tyrosine. […] We previously elucidated the crystal structure of the TKB domain of CBLB complexed with C ...

A short description of series [2]: Transport of Cblin pentapeptides across Caco-2 cell monolayers (apparent permeability). The format is in vitro ADME. As to conditions: human; Caco-2 (C2BBe1) monolayers, apical to basolateral, apical HBSS pH 6.0 / basolateral HBSS pH 7.4, 1 mM peptide, 0.5% DMSO, 60 min, 37 °C, TEER >300 Ω·cm2, LC–TOF/MS, means ± SEM (n = 4–6). The method, then: (§1) Cell culture and transport experiment were performed as described[24],[45]. Caco-2 cells were cultured using BD BioCoat Intestinal Epithelium Differentiation Environment kits (BD Bioscience, Franklin Lakes, NJ, USA). Caco-2 cells grown in 0.9 cm^2 Falcon cell culture inserts (polyethylene terephthalate membranes; pore size, 1.0 μm; Becton Dickinson and Co.) with a type I collagen-coated membrane (Cellmatrix type IA Collagen Gel Culturing Kit; Nitta Gelatin Inc., Osaka, Japan) were gently rinsed twice with Hanks balanced salt solution (HBSS; 137 mM NaCl, 5 mM KCl, 5.5 mM D-glucose, 4 mM NaHCO3, 0.75 mM NaHPO4·12H2O, 0.4 mM KH2PO4, 0.8 mM MgSO4·7H2O, and 1.26 mM CaCl2·2H2O, pH 6.0 adjusted with 10 mM 2-(N-morpholino)-ethanesulfonic acid). A portion (1.5 mL) of HBSS buffer (pH 6.0) was added to the apical side, and HBSS buffer (pH 7.4 adjusted with 10 mM N-2-hydroxyethylpiperazine-N′-2-ethanesulfonic acid) was added to the basolateral side. After equilibration for 15 min at 37 °C, the apical buffer was replaced with fresh HBSS (pH 6.0) containing 1 mM peptide and 0.5% DMSO. Portions (60 μL) of solutions were drawn from the apical or basolateral sides at 15, 30, 45, and 60 min to determine amounts of transported peptides. Monolayer integrity was evaluated by measuring TEER using a Millicell® ERS-2 Voltohmmeter (Merck KGaA, Darmstadt, Germany), and monolayers with a TEER of >300 Ω · cm^2 were included in the experiments. The apparent permeability coefficient (Papp, cm/s) was calculated as1 Pappcm/s=V/AC0×dC/dt where dC/dt is the change in concentration on the basolateral side over time (mM/s), V is the volume of solution in the basolateral compartment (1.5 mL), A is the surface area of the membrane (0.9 cm^2), and C0 is the initial concentration on the apical side (mM).
(§2) We investigated the involvement of PEPT1 in peptide transport by competition studies using 10 mM Gly-Sar, a PEPT1 substrate. We also investigated peptide transport over paracellular tight junctions by incubating monolayers with the tight junction opener, cytochalasin D (0.5 μg/mL) for 30 min[47] before evaluating transport.
(§3) Oligopeptides were separated at 40 °C using a linear gradient of 0.1% formic acid (FA) in MS grade water (solvent A) and 0.1% FA in acetonitrile (ACN) (solvent B) for 20 min at a flow rate of 0.2 mL/min, and an Agilent 1200 series HPLC system (Agilent Technologies Inc., Santa Clara, CA, USA) equipped with a Cosmosil 5C18-MS-II column (Φ 2.0 mm × 150 mm, Nacalai Tesque Inc., Kyoto, Japan). The MS conditions comprised: drying gas, N2; flow rate, 8.0 L/min; drying gas temperature, 200 °C; drying gas pressure, 1.6 bar; HV capillary voltage, −4500 V; capillary exit, 70.0 V; skimmer 1, 50.0 V; hexapole 1, 23.0 V; hexapole RF, 100.0 Vpp; skimmer 2, 23.0 V; lens 1 transfer, 52.0 μs, and mass range m/z 100–1000. A calibration solution of 10 mM sodium formate in 50% ACN was injected at the beginning of each run. Data were analyzed using Bruker Data Analysis version 3.2 software (Bruker, Billerica, MA, USA). Calibration curves were prepared using 0.1–10 μM standards.
Background: Passage across Caco-2 layers is used to estimate intestinal permeability.

Series [3] deals with Caco-2 cell monolayers. The series is described as above. It counts as in vitro ADME. As to conditions: LC–TOF/MS, n = 4–6; for Effect of Gly-Sar (PEPT1 substrate) on Papp: Caco-2, 1 mM peptide with 10 mM Gly-Sar, 60 min; for Papp in monolayers incubated with cytochalasin D vs untreated membranes: Caco-2, 1 mM peptide, pre-incubation with cytochalasin D 0.5 μg/mL for 30 min, transport 60 min. The method, then:
as §1, §2, §3

In another series the test system is Caco-2 cells. Description: Peptidase degradation and dephosphorylation during Caco-2 transport (fragment screening by LC-TOF/MS). It counts as in vitro ADME. The following applies: for Resistance to peptidase degradation in Caco-2 cells: 1 mM peptide, 60 min, fragments screened by m/z, no other peptide fragments found (data not shown). The method, then:
as §1, with “After equilibration for 15 min at 37 °C, the apical buffer was replaced with fresh HBSS (pH 6.0) containing 1 mM peptide and 0.5% DMSO. Portions (60 μL) of solutions were drawn from the apical or basolateral sides at 15, 30, 45, and 60 min to determine amounts of transported peptides.” left out
Oligopeptides were separated at 40 °C using a linear gradient of 0.1% formic acid (FA) in MS grade water (solvent A) and 0.1% FA in acetonitrile (ACN) (solvent B) for 20 min at a flow rate of 0.2 mL/min, and an Agilent 1200 series HPLC system (Agilent Technologies Inc., Santa Clara, CA, USA) equipped with a Cosmosil 5C18-MS-II column (Φ 2.0 mm × 150 mm, Nacalai Tesque Inc., Kyoto, Japan). […] Data were analyzed using Bruker Data Analysis version 3.2 software (Bruker, Billerica, MA, USA). […]

The nature of series [4]: Plasma pharmacokinetics after a single oral dose in rats. The format is in vivo, Sprague-Dawley rats.
Series [5] in a line: LC-TOF/MS detection of CbR-derived peptides in serum and skeletal muscle of mice fed CbR. The following applies: serum of mice fed CbR diet for 14 days. The format is in vivo, Jcl:ICR mice. The method, then: as §3
31 Supplementary Figure 2. Analysis of serum collected from mice fed with Non-Tg or CbR using
33 Mice were handled as described in Methods. Briefly, 6-week-old male Jcl:ICR mice (Japan SLC
34 Inc., Shizuoka, Japan) were housed with access to a standard diet and water ad libitum. […]
42 specific for CbR group. ND, not detected. […]
60 analyzed by LC-TOF/MS under conditions described in Methods. […]
61 those of possible metabolites. […] ND, not detected.

Setting [6] is: rat, single p.o. 50 mg/kg BW, n = 1.
[7] abbreviates: rat, single p.o. 200 mg/kg BW, n = 1.

Turning to “Gly-Sar-Sar-Sar-Sar [pentapeptide transport model with methylated peptide bonds]”, in the series on Caco-2 cell monolayers [1], the Papp is given as 8.6 ± 0.6^a,* ×10^−7 cm/s and the Papp, as given in text was 8.6 ×10^−7 cm/s.
As for Gly-[pY]-Met, the “Effect on CBLB-mediated ubiquitination of IRS1” value in the series on CBLB (in vitro) is listed as “suppressive effect”.
With “Asp-Ile-Tyr-Asn-Pro [modified Cblin peptide (Cblin-like peptide from soy glycinin) with non-phosphorylated tyrosine]”, the “Effect on CBLB-mediated IRS1 ubiquitination” value in the series with CBLB is reported as “suppresses”.
As a reminder, the Papp A→B is the apparent permeability from the apical to the basolateral side of a cell layer. On to `CSCC[C@H](NC(=O)[C@H](Cc1ccc(OP(=O)(O)O)cc1)NC(=O)CNC(=O)[C@@H](N)CC(=O)O)C(=O)N1CCC[C@H]1C(=O)O` [Asp-Gly-pTyr-Met-Pro] (H-DG[pY]MP-OH), for which the apparent permeability from apical to basolateral (Papp A→B) at 60 min, 1 mM in series [2] came to 0.35 ± 0.12 ×10⁻⁶ cm/s. Moreover, in the series on Caco-2 cell monolayers [3], the “Effect of Gly-Sar (PEPT1 substrate) on Papp” value is reported as “not affected” and the “Papp in monolayers incubated with cytochalasin D vs untreated membranes” value is “significantly higher”. The “Resistance to peptidase degradation in Caco-2 cells” value in the series with Caco-2 cells is “resistant to peptidase degradation”. In addition, in the series with Caco-2 cells (basolateral solution after 60 min, Asp-Gly-Tyr-Met-Pro found at an estimated concentration similar to the intact peptide), the “Dephosphorylation during Caco-2 transport” value is on record as “dephosphorylated”.
As a reminder, the half-life is the time needed for the level to fall by half in the phase considered. Read a low half-life as fast loss. Consider `CSCC[C@H](NC(=O)[C@H](Cc1ccc(O)cc1)NC(=O)CNC(=O)[C@@H](N)CC(=O)O)C(=O)N1CCC[C@H]1C(=O)O` [Asp-Gly-Tyr-Met-Pro] (H-DGYMP-OH), for which, in series [2], the Papp A→B at 60 min, 1 mM turned out to be 0.7 ± 0.08 ×10⁻⁶ cm/s. In the series with Caco-2 cell monolayers [3], the “Effect of Gly-Sar (PEPT1 substrate) on Papp” value was “not affected” and the “Papp in monolayers incubated with cytochalasin D vs untreated membranes” value was “significantly higher”. The “Resistance to peptidase degradation in Caco-2 cells” value with Caco-2 cells is on record as “resistant to peptidase degradation”. In addition, in series [4] (male, Sprague-Dawley, plasma, po, rat, p.o. 100 mg/kg BW, elimination half-life, n = 5), the half-life turned out to be 28 min. For the same compound, the tmax in series [4] (male, Sprague-Dawley, plasma, po, rat, p.o. 100 mg/kg BW, n = 5, read-out: tmax (converted)) is 15 min. In addition, the “Metabolites found in rat plasma” value in series [4] (p.o. 100 mg/kg BW, plasma 30 min after administration, screened by m/z) was “Gly-Tyr-Met-Pro and Met-Pro”. For the same compound, the Cmax in series [4] (rat, p.o. 100 mg/kg BW, fasted 16 h, LC–TOF/MS with isotope-labelled internal standard, means ± SEM (n = 5)) was 2.78 ± 0.17 pmol/mL plasma. Further, in series [4] (setting [6]), the “AUC0–60 min” value was 14.61 pmol ∙ min/mL plasma, the Cmax was 0.79 pmol/mL plasma, the t1/2 was found to be 8.99 min and the tmax is 10 min. Moreover, in series [4] (setting [7]), the “AUC0–60 min” value is 648.91 pmol ∙ min/mL plasma, the Cmax was found to be 27.25 pmol/mL plasma, the t1/2 is 5.58 min and the tmax turned out to be 30 min.
With `CSCC[C@H](NC(=O)[C@H](Cc1ccc(O)cc1)NC(=O)CNC(=O)[C@H](CC(=O)O)NC(=O)[C@@H](N)CCC(N)=O)C(=O)N1CCC[C@H]1C(=O)N[C@@H](Cc1c[nH]c2ccccc12)C(=O)O` [Gln-Asp-Gly-Tyr-Met-Pro-Trp] (H-QDGYMPW-OH), in series [5], the “Uptake of intact heptapeptide into serum” value is “undetectable”.

The values are drawn from paper PMC8429733, “Oral intake of rice overexpressing ubiquitin ligase inhibitory pentapeptide prevents atrophy in denervated skeletal muscle” (NPJ Science of Food, 2021).
